This note sets out measurements from ChEMBL document CHEMBL5236610, “A Comprehensive Overview of Small-Molecule Androgen Receptor Degraders: Recent Progress and Future Perspectives” (J Med Chem, 2022).

For data set [1], the target named is T1, Androgen receptor (Homo sapiens, UniProt P10275).
T1 sequence (P10275 whole entry): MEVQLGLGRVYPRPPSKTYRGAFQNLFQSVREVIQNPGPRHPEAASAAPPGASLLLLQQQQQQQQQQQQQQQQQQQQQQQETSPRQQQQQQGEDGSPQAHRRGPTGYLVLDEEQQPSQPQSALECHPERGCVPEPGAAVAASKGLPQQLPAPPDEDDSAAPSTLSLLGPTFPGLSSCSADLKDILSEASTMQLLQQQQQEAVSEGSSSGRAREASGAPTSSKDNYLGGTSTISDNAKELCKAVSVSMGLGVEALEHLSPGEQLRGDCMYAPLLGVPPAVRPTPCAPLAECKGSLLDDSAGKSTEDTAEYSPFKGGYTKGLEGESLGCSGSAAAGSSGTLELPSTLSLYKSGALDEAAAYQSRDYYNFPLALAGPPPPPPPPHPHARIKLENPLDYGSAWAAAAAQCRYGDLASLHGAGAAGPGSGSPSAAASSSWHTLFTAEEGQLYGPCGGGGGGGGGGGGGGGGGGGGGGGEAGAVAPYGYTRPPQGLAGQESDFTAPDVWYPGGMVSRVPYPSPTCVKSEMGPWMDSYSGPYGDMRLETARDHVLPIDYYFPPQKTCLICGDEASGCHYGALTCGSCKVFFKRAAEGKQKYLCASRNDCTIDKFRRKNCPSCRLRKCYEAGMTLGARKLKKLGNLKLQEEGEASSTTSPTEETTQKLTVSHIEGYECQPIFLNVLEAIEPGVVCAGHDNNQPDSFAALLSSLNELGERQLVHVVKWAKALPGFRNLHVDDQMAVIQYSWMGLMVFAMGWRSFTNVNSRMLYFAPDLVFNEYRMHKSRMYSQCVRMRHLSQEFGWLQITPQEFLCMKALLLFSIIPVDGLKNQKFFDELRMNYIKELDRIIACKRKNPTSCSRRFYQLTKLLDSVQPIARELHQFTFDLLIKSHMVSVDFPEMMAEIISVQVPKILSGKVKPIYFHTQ
The data set is described as follows: Inhibition of Androgen receptor (unknown origin).

For data set [2], the system named is LNCaP. Briefly: Antitumor activity against human LNCaP cells xenografted in nude mouse assessed as decrease in tumor weight at 40 mg/kg via oral gavage for six days weekly for 70 days relative to control. It counts as functional. The note with it: time 70 day. More on the design: scale not given: the % may be the effect or the level left. In general terms: Xenograft models place foreign cells or tissue in a host animal.

The subject of data set [3] is LNCaP. The data set is described as follows: Antitumor activity against human LNCap cells xenografted in NSG mouse assessed as tumor growth inhibition at 100 mg/kg, sc relative to control. Conditions: read-out: TGI. It counts as functional.
A short description of a further data set: in vitro. The note with it: mouse, liver microsomes. (Liver microsomes are vesicles of endoplasmic reticulum, rich in cytochrome P450 enzymes.)
Data set [4] deals with T2, von Hippel-Lindau disease tumor suppressor/Androgen receptor (Homo sapiens, UniProt P10275+P40337). The data set is described as follows: PROTAC activity at VHL/AR-V7 in human 22Rv1 cells assessed as induction of AR-V7 degradation incubated for 24 hrs by immunoblot assay. It counts as cell-based. (A western blot detects proteins with antibodies after separation by electrophoresis.)
Target sequence in this assay (P40337 whole entry, looked up, stated change not applied, one chain of several): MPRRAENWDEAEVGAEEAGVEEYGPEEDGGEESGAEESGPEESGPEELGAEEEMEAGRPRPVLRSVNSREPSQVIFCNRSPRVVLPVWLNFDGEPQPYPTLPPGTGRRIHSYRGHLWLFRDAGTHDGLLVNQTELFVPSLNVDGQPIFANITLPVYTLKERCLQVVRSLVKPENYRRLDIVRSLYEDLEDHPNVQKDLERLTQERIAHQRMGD

Data set [5] deals with T2, von Hippel-Lindau disease tumor suppressor/Androgen receptor. The data set is described as follows: PROTAC activity at VHL/full length AR in human 22Rv1 cells assessed as induction of AR degradation incubated for 24 hrs by immunoblot assay. It counts as cell-based.
Target sequence in this assay (P40337 whole entry, one chain of several): as the sequence (P40337 whole entry, looked up, stated change not applied, one chain of several) above
Data set [6] addresses T1, Androgen receptor. Briefly: Induction of degradation of AR LBD in human LNCaP cells. It counts as cell-based.
In data set [7] the target is T1, Androgen receptor. Briefly: Inhibition of AR LBD in human LNCaP cells. It is filed as cell-based.
Data set [8] can be described thus: Downregulation of AR-Vs level in human LNCaP cells at 10 uM by Western blot analysis relative to control. It is filed as functional.
The nature of data set [9]: Downregulation of AR-Vs level in human CWR22Rv cells at 10 uM by Western blot analysis relative to control. It is filed as functional.
A short description of data set [10]: Antitumor activity in human CWR22rv cells xenografted NOD.CB17-PrkdcSCID/J mouse model assessed as inhibition of tumor growth at 10 mg/kg, ip relative to control. It counts as functional. More on the design: scale not given: the % may be the effect or the level left.
Data set [11] can be described thus: Downregulation of AR level in human LNCaP cells at 10 uM by Western blot analysis relative to control. It counts as functional.
A short description of data set [12]: Downregulation of AR level in human CWR22Rv cells at 10 uM by Western blot analysis relative to control. It counts as functional.
Data set [13] deals with LNCaP. The data set is described as follows: Antiproliferative activity against human LNCap cells incubated for 168 hrs by […] assay. It counts as functional, cell-based.
In a further data set the test system is VCaP. Briefly: Antiproliferative activity against human VCaP cells incubated for 168 hrs by […] assay. It counts as functional, cell-based.
Data set [14] deals with LNCaP. Briefly: Antiproliferative activity against human LNCAP cells assessed as reduction in cell viability. It is filed as functional, cell-based.
Data set [15] deals with CWR22R. Briefly: Antiproliferative activity against human 22Rv1 cells assessed as reduction in cell viability. It is filed as functional, cell-based.
The target in data set [16] is Protein cereblon/Androgen receptor (Homo sapiens, UniProt P10275+Q96SW2). The data set is described as follows: Protac activity at CRBN/Androgen receptor in human LNCaP cells assessed as Androgen receptor degradation incubated for 24 hrs. It is filed as cell-based.
Data set [17] relates to CWR22R. The data set is described as follows: Antitumor activity against human 22Rv1 cells xenografted in BALB/c nude mouse assessed as reduction in tumor volume at 10 mg/kg administered daily by vernier caliper method relative control. It is filed as functional. More on the design: scale not given: the % may be the effect or the level left.
Data set [18] concerns LNCaP C4-2B. Briefly: Antiproliferative activity against human C4-2B cells. It counts as functional, cell-based.
In data set [19] the test system is PC-3. The data set is described as follows: Antitumor activity against human PC-3 cells xenografted in mouse assessed as reduction in tumor at 50 mg/kg in presence of bicalutamide relative to control. It is filed as functional. Also noted: scale not given: the % may be the effect or the level left.
Data set [20] has as its system LNCaP C4-2B. Briefly: Antiproliferative activity against human LNCaP C4-2B cells. It is filed as functional, cell-based.
The test system of data set [21] is CWR22R. Briefly: Antiproliferative activity against human 22Rv1 cells. It counts as functional, cell-based.
The subject of data set [22] is LNCaP. Briefly: Antiproliferative activity against human LNCap cells. It is filed as functional, cell-based.
Data set [23] deals with PC-3. The data set is described as follows: Antiproliferative activity against human PC-3 cells. It counts as functional, cell-based.
For data set [24], the system named is CWR22R. The data set is described as follows: Antitumor activity against human 22rv1 cells xenografted in mouse assessed as suppression of tumor growth at 100 mg/kg, po administered daily for 25 days relative to control. Conditions: time 25 day. It is filed as functional.
Data set [25] addresses T3, Steroid 17-alpha-hydroxylase/17,20 lyase (Homo sapiens, UniProt P05093).
T3 sequence (P05093 whole entry): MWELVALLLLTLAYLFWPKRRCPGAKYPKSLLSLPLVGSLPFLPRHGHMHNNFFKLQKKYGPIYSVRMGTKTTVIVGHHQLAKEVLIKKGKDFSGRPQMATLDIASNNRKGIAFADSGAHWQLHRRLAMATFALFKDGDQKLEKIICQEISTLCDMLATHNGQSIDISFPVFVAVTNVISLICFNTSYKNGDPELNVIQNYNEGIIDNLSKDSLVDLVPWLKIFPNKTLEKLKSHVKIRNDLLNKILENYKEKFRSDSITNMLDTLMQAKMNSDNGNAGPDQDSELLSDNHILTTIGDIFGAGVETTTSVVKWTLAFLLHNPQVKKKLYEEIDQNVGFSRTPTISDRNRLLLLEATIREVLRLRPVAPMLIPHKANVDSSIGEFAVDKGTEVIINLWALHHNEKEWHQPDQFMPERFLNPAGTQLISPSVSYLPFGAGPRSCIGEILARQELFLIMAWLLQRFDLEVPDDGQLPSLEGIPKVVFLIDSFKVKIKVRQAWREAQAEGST
Briefly: Inhibition of CYP17AI in human LNCaP cells. It counts as ADME, cell-based.

The target in data set [26] is T3, Steroid 17-alpha-hydroxylase/17,20 lyase. Briefly: Inhibition of CYP17AI in human 22Rv1 cells. It counts as ADME, cell-based.
A further data set has as its system DU-145. The data set is described as follows: Antiproliferative activity against human DU-145 cells incubated for 24 hrs by CCK-8 assay. The note with it: DU-145, 24 h. It is filed as functional, cell-based.
Another data set deals with LNCaP C4-2. The data set is described as follows: Antiproliferative activity against human C4-2 cells incubated for 24 hrs by CCK-8 assay. It is filed as functional, cell-based. The note with it: LNCaP C4-2, 24 h.
Data set [27] concerns CWR22R. The data set is described as follows: Antiproliferative activity against human 22Rv1 cells incubated for 24 hrs by CCK-8 assay. Conditions: 22Rv1, 24 h. It counts as functional, cell-based.
Data set [28] concerns PC-3. The data set is described as follows: Antiproliferative activity against human PC-3 cells incubated for 24 hrs by CCK-8 assay. It is filed as functional, cell-based. Conditions: PC-3, 24 h.

Protein cereblon/Androgen receptor, sequence (Q96SW2 whole entry, one chain of several): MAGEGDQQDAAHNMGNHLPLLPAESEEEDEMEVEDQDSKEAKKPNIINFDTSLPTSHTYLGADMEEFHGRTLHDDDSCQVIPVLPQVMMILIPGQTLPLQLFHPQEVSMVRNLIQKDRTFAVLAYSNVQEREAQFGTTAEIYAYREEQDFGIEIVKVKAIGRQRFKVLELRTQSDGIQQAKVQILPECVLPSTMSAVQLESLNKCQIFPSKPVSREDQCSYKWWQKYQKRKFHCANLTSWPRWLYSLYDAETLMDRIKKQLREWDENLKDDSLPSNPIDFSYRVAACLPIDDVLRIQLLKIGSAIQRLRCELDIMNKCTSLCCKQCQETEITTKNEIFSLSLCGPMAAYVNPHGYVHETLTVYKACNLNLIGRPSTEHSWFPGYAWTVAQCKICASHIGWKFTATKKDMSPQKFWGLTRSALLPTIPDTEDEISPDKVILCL
Description for in vitro: Metabolic stability in mouse liver microsomes assessed as half life by LC-MS/MS analysis

`Clc1ccc(-c2cnc3n2CCC3)cc1` had an IC50 at Androgen receptor [1] of 4.3 µM. Regarding `CC(C)=CCC[C@](C)(O)[C@H]1CC[C@]2(C)[C@@H]1[C@H](O)C[C@@H]1[C@@]3(C)CC[C@H](O)C(C)(C)[C@@H]3CC[C@]12C`, the Activity in the data set on LNCaP [2] turned out to be 32.6%.

With `C[C@](O)(Cn1ccc2cc(F)ccc21)C(=O)Nc1ccc(C#N)c(C(F)(F)F)c1`, the inhibition in vivo at 100 mg/kg in the data set with LNCaP [3] was 65%. The compound `CN(C[C@](C)(O)C(=O)Nc1ccc(C#N)c(C(F)(F)F)c1)c1ccc(C#N)c(-c2ccccc2)c1` came in with a half-life in “in vitro” of 1 min. For the compound `Cc1ncsc1-c1ccc([C@H](C)NC(=O)[C@@H]2C[C@@H](O)CN2C(=O)[C@@H](NC(=O)CCCCNC(=O)COc2c(-c3csc(N4CCOCC4)n3)ccc(F)c2F)C(C)(C)C)cc1`, the EC50 amounted to 370 nM in data set [4] and 2000 nM in data set [5]. `CC1(C)C(=O)N(c2ccc(C#N)c(C(F)(F)F)c2)C(=S)N1CCCC(=O)NCCOCCOC(=O)CC12CC3CC(CC(C3)C1)C2`: the response at Androgen receptor [6] was half-maximal at 1000 nM (EC50). The compound also showed an IC50 on Androgen receptor [7] of 156 nM. For `CCOc1ccc2c(c1OC(C)C)CCN(c1ccc(C(=O)Nc3cccc(C)n3)cn1)C2`, the Activity in data set [8] is reported as more than 90%; in data set [9], more than 90%; in data set [10], 65%; in data set [11], more than 90%; in data set [12] it was more than 90%.

On to `CC1(C)C(=O)N(c2ccc(C#N)c(C(F)(F)F)c2)C(=S)N1CCCCOc1cccc2c1C(=O)N(C1CCC(=O)NC1=O)C2=O` (configuration not stated), for which the IC50 in the data set on LNCaP [13] turned out to be 3.07 µM; in the data set on VCaP, 127 nM.

For the compound `CC1(C)CC(NC(=O)[C@H](Cc2ccc(OCc3c(Cl)cccc3Cl)cc2)NC(=O)/C(=C\c2ccccc2)c2ccccc2)CC(C)(C)N1`, the IC50 with LNCaP [14] amounted to 3000 nM; with CWR22R [15], 2600 nM.

Take `CC(O)(COc1ccc(OCCOCCOc2cccc3c2C(=O)N(C2CCC(=O)NC2=O)C3=O)cc1)C(=O)Nc1ccc(C#N)c(I)c1` (configuration not stated): the EC50 in data set [16] came out at 5.21 µM. With `COc1ccc(-n2nc3ccc(NC(=O)CO[N+](=O)[O-])cc3n2)cc1`, the Activity in the data set with CWR22R [17] is listed as 82%. As to `COc1ccc(C(=O)n2c(C)cc3cc(Cl)ccc32)cc1`, inhibition in the data set with LNCaP C4-2B [18] was half-maximal at 1090 nM (IC50). On to `C[C@H]1[C@H](OC(=O)CCC(=O)O)O[C@@H]2O[C@@]3(C)CC[C@H]4[C@H](C)CC[C@@H]1[C@@]24OO3` [ARTESUNATE], for which the Activity in the data set on PC-3 [19] is more than 95%.

Consider `COc1ccc2cc3[n+](cc2c1OC)CCc1cc2c(cc1-3)OCO2` [BERBERINE], for which the IC50 worked out at 11.2 µM with LNCaP C4-2B [20], 12.7 µM in the data set on CWR22R [21], 3.4 µM with LNCaP [22] and 21.5 µM in the data set on PC-3 [23]. For the compound `CC(C)c1cc2c(c(O)c1O)[C@@]1(C(=O)O)CCCC(C)(C)[C@@H]1CC2` [CARNOSIC ACID], the Activity in the data set on CWR22R [24] stood at 53%. In the case of `C[C@]12CC[C@H](O)CC1=CC[C@@H]1[C@@H]2CC[C@]2(C)C(n3cnc4ccccc43)=CC[C@@H]12` [GALETERONE], the figures for the IC50 in data set [25] and in [26] were 3.55 µM and 12.2 nM, respectively. On to `COc1ccc(-c2cc(=O)c3c(OC)c(OC)c(OC)c(OC)c3o2)cc1OC` [NOBILETIN], for which the IC50 was 144 µM with DU-145, 30.3 µM in the data set on LNCaP C4-2, 36.5 µM in the data set with CWR22R [27] and 123 µM in the data set with PC-3 [28].

Broadly, the IC50 is the concentration at which inhibition is half-maximal. For orientation: half-life means the time in which the quantity being followed falls by half. As usually defined, the EC50 is the concentration at which the effect is half-maximal.
